Each structure is given as a SMILES string.

Details of data set [1]: method as in PMID 9357524. The note with it: mice; cited from earlier work.
The test system of data set [2] is normal endometrial cells. In words: CellTiter 96 AQueous One Solution (MTS) cytotoxicity assay, 48 h, normal cells. The note with it: 48 hours of treatment, read-out: Potencies (EC50 values) of Growth Inhibition Activity, Normal Endometrium. In kind it is cell-based. The procedure:
(§1) The CellTiter 96 AQueous One Solution Cell Proliferation Assay (Promega) was used to measure living cells remaining after 48 hours of incubation with or without a range of concentrations for the heteroarotinoids. MTS [3-(4,5-dimethylthiazol-2-yl)-5-(3-carboxymethoxyphenyl)-2-(4-sulfophenyl) -2H-tetrazolium, inner salt], a novel tetrazolium compound, was added to each well and incubated for 4 hours, followed by addition of a solublization/stop solution. After overnight incubation, the optical density (OD) of each well was determined by measuring the absorbance at 540 nm using a Dynex MRX Revelation microtiter plate reader. Treatments were performed in triplicate, and the growth indices were derived by dividing the average OD540 of each treatment by the average OD540 of control cultures. The results represent the average and standard error of two to three independent experiments.
(§2) The A2780 ovarian cancer cells were cultured in RPMI media, and normal endometrial cells were cultured in MEM media. Both media contained fetal bovine serum (FBS), sodium pyruvate, and antibiotic/antimycotic. The normal endometrial cells were collected from a healthy premenopausal […] and used prior to passage as previously described.

Data set [3] concerns A2780 ovarian cancer cells. In words: CellTiter 96 AQueous One Solution (MTS) cytotoxicity assay, 48 h, A2780. In kind it is cell-based. The note with it: for EC50: Homo sapiens, A2780 ovarian cancer cells, 48 hours of treatment, read-out: Potencies (EC50 values) of Growth Inhibition Activity, A2780 Ovarian Cancer; for Growth inhibition of ovarian cancer cultures (in words): A2780, Fig. 4; for Differential effects on cancer cells versus normal cells (therapeutic window): A2780 versus normal endometrial cells, Fig. 4C and Table 4. Here is the method:
as §1, §2
The abilities of the new heteroarotinoids to inhibit cancer growth were compared by growing the ovarian cancer cell line (A2780) in the absence and presence of various concentrations of the different compounds. The amount of cells remaining after 48 hours of treatment was measured using a cytotoxicity assay. The optical density (OD) endpoint of the assay represents the number of cells remaining after 48 hours of treatment. The Growth Index was derived by dividing the OD of treated cultures by the OD of untreated cultures. The results are presented in graphic form where Growth Index on the y axis represents the number of cells remaining after 48 hours of treatment relative to untreated controls, and the x axis represents the concentration of drug added. The lower the Growth Index, the greater the growth inhibition.

For data set [4], the system named is cancerous cell phenotype. More on the design: method as in PMID 11287445. The note with it: at 3 μM; cited from earlier work.
For data set [5] the following is noted: preclinical testing; cited from earlier work.
Details of data set [6]: method as in PMID 16534614. The note with it: preliminary evidence; cited from earlier work.
On the set-up of data set [7]: method as in PMID 16534614. The note with it: cited from earlier work.
Data set [8] deals with A2780 cells. Briefly: Annexin-V-FITC / propidium iodide apoptosis assay (flow cytometry). It is filed as cell-based. The note with it: 10 µM, 24 hours. Here is the method: Cells were plated in 6-well tissue culture dishes at a cell density of 1 x 10^5 cells/well. After allowing cells to adhere to the dishes overnight, parallel cultures were treated with varying concentrations of heteroarotinoids or the same volume of DMSO solvent for 24 hours. The Vybrant™ Apoptosis Assay Kit #3 (Molecular Probes) was then utilized to measure apoptosis and necrosis. Tissue culture medium in each well was collected to harvest cells that had already lifted off the tissue culture plate. These were combined with adherent cells that were harvested by trypsinization. The cells were pelleted by centrifugation and resuspended in 100 μL of 1X annexin-binding buffer, and then they were incubated with 5 µl of annexin V conjugated to fluorescein (Annexin-V-FITC) and 1 µL of 100 µg/mL propidium iodide (PI) for 15 minutes at room temperature. The solution was then mixed gently with an additional 400 µl of 1X annexin-binding buffer, and the samples were evaluated with a FACSCalibur (Becton Dickinson) automated benchtop flow cytometer at an excitation wavelength of 488 nm with observation wavelengths of 530 nm and 575 nm. Flow cytometry data were quantified using Summit for MoFlo Acquisition and Sort Control Software (Cytomation, Inc). […]
(In flow cytometry, cells or beads pass a laser one at a time.)

As for `CC1=C(/C=C/C(C)=C/C=C/C(C)=C/C(=O)O)C(C)(C)CCC1` [Compound 1, trans-retinoic acid], the “maximum tolerated dose (MTD)” value in data set [1] was 10 mg/kg/day.

For `Cc1ccc2cc(NC(=S)Nc3ccc([N+](=O)[O-])cc3)ccc2n1` [Compound 9a, 1-(2-Methylquinolin-6-yl)-3-(4-nitrophenyl) thiourea], the melting point (commonly the temperature, or range, at which the solid turns liquid) lay within 113 to 115 °C. Moreover, the EC50 – broadly, the concentration needed to bring the measured effect to its halfway point – in [2] is greater than 1000 µM. Further, the EC50 in [3] worked out at 5 µM.

`Cc1ccc2cc(NC(=O)Nc3ccc([N+](=O)[O-])cc3)ccc2n1` [Compound 9b, 1-(2-Methylquinolin-6-yl)-3-(4-nitrophenyl)urea] showed a melting point of 241 to 242 °C. Also, the EC50 in [2] is greater than 1000 µM. In addition, the EC50 in data set [3] is 7.86 µM.

Regarding `CCOC(=O)c1ccc(NC(=O)Nc2ccc3nc(C)ccc3c2)cc1` [Compound 9c, Ethyl 4-[3-(2-Methylquinolin-6-yl)ureido]benzoate], the values for the EC50 in [2] and in data set [3] were greater than 1000 µM and 4.88 µM, respectively.

For `CC1(C)CC(C)(C)c2cc(NC(=S)Nc3ccc([N+](=O)[O-])cc3)ccc2S1` [Compound 10a, [4-nitrophenylamino][(2,2,4,4-tetramethylthiochroman-6-yl)amino]methane-1-thione], the Effects on differentiation result in [4] is “normalization of the cancerous cell phenotype and induction of orderly tissue architecture”. For the same compound, the concentration for a half-maximal effect (EC50) in data set [2] came to 2.97 µM. The “Toxicity, skin irritancy, teratogenicity” value in [5] is given as “without evidence of toxicity, skin irritancy, or teratogenicity”. The “Concentrations achieved and maintained in animal models” value in [6] is “micromolar concentrations”. In addition, the “Binding to proteins in mouse plasma” value in [7] is “binds strongly”. Moreover, in data set [3], the “Growth inhibition of ovarian cancer cultures (in words)” value is recorded as “micromolar range”, the “Differential effects on cancer cells versus normal cells (therapeutic window)” value is recorded as “differential effects” and the concentration giving a half-maximal response (EC50) was determined as 1.72 µM.

Turning to `CC1(C)CC(C)(C)c2cc(NC(=O)Nc3ccc([N+](=O)[O-])cc3)ccc2S1` [Compound 10c, 1-(2,2,4,4-Tetramethylthiochroman-6-yl)-3-(4-nitrophenyl)urea], the EC50 in data set [2] is 2.29 µM. Moreover, the “Induction of apoptosis (Annexin-V-FITC staining)” value in data set [8] was “induces positive staining for Annexin-V-FITC”. Besides, in data set [8] (Fig. 5C), the “Degree of apoptosis induced, 10c compared with 10a” value is given as “slightly higher”. In data set [3], the “Growth inhibition of ovarian cancer cultures (in words)” value was “micromolar range”, the “Differential effects on cancer cells versus normal cells (therapeutic window)” value is listed as “differential effects” and the concentration for a half-maximal effect (EC50) was 1.02 µM.

The record behind these values is PMC2709466, “Heteroarotinoids with Anti-Cancer Activity Against Ovarian Cancer Cells” (The Open Medicinal Chemistry Journal, 2007).
